Key:
[1] = tested on: MCF-7 cell line; assay: MTT cytotoxicity assay, MCF-7; type: cell-based; details: Homo sapiens, MCF7, 72 h, average of two determinations, NA = No Activity
Procedure: (§1) Taking GDC-0941 as the reference compound, the target compounds (7a–l and 8a–l) were evaluated for the cytotoxicity against four cancer cell lines A549, PC-3, MCF-7, and HepG2 by 3-(4,5-dimethylthiazolyl-2)-2,5-diphenyltetrazolium bromide (MTT) cell proliferation assay. In order to confirm the types of target compound, selective or mixed-type inhibitors, the selected compound, 8d, was measured for its PI3Kα kinase inhibitory activity together with reference compounds GDC-0941 and PI103 via the Kinase-Glo® Luminescent […] assay. The results expressed as inhibition rates or IC50 values are summarized in Table 1 and Table 2, where the values are the average of at least two independent experiments.
(§2) The in vitro cytotoxic activities of Compounds 7a–l and 8a–l were evaluated with A549, PC-3, HepG2, and MCF-7 cell lines by the standard MTT assay, with GDC-0941 as a positive control. The cancer cell lines were cultured in minimum essential medium (MEM) supplement with 10% fetal bovine serum (FBS). Approximately, 4 × 10^3 cells, suspended in MEM medium, were plated onto each well of a 96-well plate and incubated in 5% CO2 at 37 °C for 24 h. The test compounds at the indicated final concentrations were added to the culture medium, and cell cultures continued for 72 h. Fresh MTT was added to each well at a terminal concentration of […] and incubated with cells at 37 °C for 4 h. The formazan crystals were dissolved in 100 µL of DMSO in each well, and the absorbency at 492 nm (for absorbance of MTT formazan) and 630 nm (for the reference wavelength) was measured with an enzyme linked immunosorbent assay (ELISA) reader (MR-96A Mindray Elisa Microplate Reader, Guangzhou, China). All compounds were tested three times in each of the cell lines. The results expressed as inhibition rates or IC50 were the averages of two determinations and calculated using the Bacus Laboratories Inc. Slide Scanner (Bliss) software (the Bacus Laboratories Inc. Slide Scanner (BLISS) system, Lombard, IL, USA).

[2] = tested on: HepG2 cell line; assay: MTT cytotoxicity assay, HepG2; type: cell-based; details: Homo sapiens, HepG2, 72 h, average of two determinations, NA = No Activity
Procedure: as §1, §2

[3] = tested on: A549 cell line; assay: MTT cytotoxicity assay, A549; type: cell-based; details: Homo sapiens, A549, 72 h, average of two determinations, NA = No Activity
Procedure: as §1, §2

[4] = tested on: PC-3 cell line; assay: MTT cytotoxicity assay, PC-3; type: cell-based; details: Homo sapiens, PC-3, 72 h, average of two determinations, NA = No Activity
Procedure: as §1, §2

Row | SMILES | IC50 [1] [µM] | melting point [°C] | IC50 [2] [µM] | IC50 [3] [µM] | IC50 [4] [µM]
1 | O=S1(=O)CCc2nc(N3N=C(c4ccccc4)C[C@@H]3c3ccc(Cl)c(Cl)c3)nc(N3CCOCC3)c2C1 [Compound 8e, (R)-2-(5-(3,4-Dichlorophenyl)-3-phenyl-4,5-dihydro-1H-pyrazol-1-yl)-4-morpholino-7,8-dihydro-5H-thiopyrano[4,3-d]pyrimidine 6,6-dioxide] | 35.3 ± 0.49 |  |  |  | 
2 | Brc1ccc([C@H]2CC(c3ccccc3)=NN2c2nc3c(c(N4CCOCC4)n2)CSCC3)cc1 [Compound 7k, (R)-4-(2-(5-(4-Bromophenyl)-3-phenyl-4,5-dihydro-1H-pyrazol-1-yl)-7,8-dihydro-5H-thiopyrano[4,3-d]pyrimidin-4-yl)morpholine] | 35.7 ± 0.74 | 167 to 168 | 32.7 ± 0.36 | 31.2 ± 0.59 | 17.8 ± 0.55
3 | COc1ccc(C2=NN(c3nc4c(c(N5CCOCC5)n3)CS(=O)(=O)CC4)[C@@H](c3ccccc3)C2)cc1 [Compound 8l, (R)-2-(3-(4-Methoxyphenyl)-5-phenyl-4,5-dihydro-1H-pyrazol-1-yl)-4-morpholino-7,8-dihydro-5H-thiopyrano[4,3-d]pyrimidine 6,6-dioxide] |  | 109 to 114 |  |  | 37.38 ± 0.23
4 | Fc1ccc(C2=NN(c3nc4c(c(N5CCOCC5)n3)CSCC4)[C@@H](c3ccc(Cl)c(Cl)c3)C2)cc1 [Compound 7d, (R)-4-(2-(5-(3,4-Dichlorophenyl)-3-(4-fluorophenyl)-4,5-dihydro-1H-pyrazol-1-yl)-7,8-dihydro-5H-thiopyrano[4,3-d]pyrimidin-4-yl)morpholine] | 10.3 ± 0.94 | 207 to 211 | 8.39 ± 1.91 | 6.02 ± 1.22 | 8.91 ± 0.72
5 | c1ccc(C2=NN(c3nc4c(c(N5CCOCC5)n3)CSCC4)[C@@H](c3ccccc3)C2)cc1 [Compound 7a, (R)-4-(2-(3,5-Diphenyl-4,5-dihydro-1H-pyrazol-1-yl)-7,8-dihydro-5H-thiopyrano[4,3-d]pyrimidin-4-yl)morpholine] | 21.7 ± 0.78 | 139 to 142 | 20.3 ± 1.15 | 21.7 ± 0.76 | 28.8 ± 2.4
6 | O=S1(=O)CCc2nc(N3N=C(c4ccc(F)cc4)C[C@@H]3c3ccc(Br)cc3)nc(N3CCOCC3)c2C1 (racemic) [Compound 8j, (R)-2-(5-(4-Bromophenyl)-3-(4-fluorophenyl)-4,5-dihydro-1H-pyrazol-1-yl)-4-morpholino-7,8-dihydro-5H-thiopyrano[4,3-d]pyrimidine 6,6-dioxide] | 46.6 ± 0.89 |  | 27.8 ± 0.64 | 29.7 ± 0.32 | 31.9 ± 0.92
7 | Clc1ccc([C@H]2CC(c3ccccc3)=NN2c2nc3c(c(N4CCOCC4)n2)CSCC3)cc1Cl (racemic) [Compound 7e, (R)-4-(2-(5-(3,4-Dichlorophenyl)-3-phenyl-4,5-dihydro-1H-pyrazol-1-yl)-7,8-dihydro-5H-thiopyrano[4,3-d]pyrimidin-4-yl)morpholine] | 35.9 ± 0.71 |  |  |  | 37.8 ± 3.64
8 | O=S1(=O)CCc2nc(N3N=C(c4ccccc4)C[C@@H]3c3ccccc3)nc(N3CCOCC3)c2C1 [Compound 8a, (R)-2-(3,5-Diphenyl-4,5-dihydro-1H-pyrazol-1-yl)-4-morpholino-7,8-dihydro-5H-thiopyrano[4,3-d]pyrimidine 6,6-dioxide] | 41.2 ± 1.25 | 219 to 220 | 32.7 ± 0.39 | 27.6 ± 0.85 | 
9 | O=S1(=O)CCc2nc(N3N=C(c4ccc(Br)cc4)C[C@@H]3c3ccc(Cl)c(Cl)c3)nc(N3CCOCC3)c2C1 [Compound 8c, (R)-2-(3-(4-Bromophenyl)-5-(3,4-dichlorophenyl)-4,5-dihydro-1H-pyrazol-1-yl)-4-morpholino-7,8-dihydro-5H-thiopyrano[4,3-d]pyrimidine 6,6-dioxide] | 43.86 ± 0.15 | 162 to 163 | 0.06 ± 0.01 | 27.8 ± 1.18 | 37.58 ± 0.22
10 | O=S1(=O)CCc2nc(N3N=C(c4ccccc4)C[C@@H]3c3ccc(Br)cc3)nc(N3CCOCC3)c2C1 [Compound 8k, (R)-2-(5-(4-Bromophenyl)-3-phenyl-4,5-dihydro-1H-pyrazol-1-yl)-4-morpholino-7,8-dihydro-5H-thiopyrano[4,3-d]pyrimidine 6,6-dioxide] | 32.6 ± 0.49 | 163 to 167 | 35.49 ± 0.33 | 35 ± 0.47 | 33.5 ± 1.67
11 | Cc1ccc(C2=NN(c3nc4c(c(N5CCOCC5)n3)CSCC4)[C@@H](c3ccc(Br)cc3)C2)cc1 (racemic) [Compound 7i, (R)-4-(2-(5-(4-Bromophenyl)-3-(p-tolyl)-4,5-dihydro-1H-pyrazol-1-yl)-7,8-dihydro-5H-thiopyrano[4,3-d]pyrimidin-4-yl)morpholine] |  |  |  | 16.4 ± 0.43 | 25.4 ± 0.74
12 | Cc1ccc(C2=NN(c3nc4c(c(N5CCOCC5)n3)CS(=O)(=O)CC4)[C@@H](c3ccc(Cl)c(Cl)c3)C2)cc1 [Compound 8b, (R)-2-(5-(3,4-Dichlorophenyl)-3-(p-tolyl)-4,5-dihydro-1H-pyrazol-1-yl)-4-morpholino-7,8-dihydro-5H-thiopyrano[4,3-d]pyrimidine 6,6-dioxide] | 42.46 ± 0.03 | 225 to 226 |  | 35.6 ± 1.47 | 17.8 ± 1.18
13 | Fc1ccc(C2=NN(c3nc4c(c(N5CCOCC5)n3)CSCC4)[C@@H](c3ccc(Br)cc3)C2)cc1 (racemic) [Compound 7j, (R)-4-(2-(5-(4-Bromophenyl)-3-(4-fluorophenyl)-4,5-dihydro-1H-pyrazol-1-yl)-7,8-dihydro-5H-thiopyrano[4,3-d]pyrimidin-4-yl)morpholine] | 28.25 ± 0.14 |  | 23.8 ± 0.55 | 19.2 ± 1.25 | 14.8 ± 1.02
14 | COc1ccc(C2=NN(c3nc4c(c(N5CCOCC5)n3)CS(=O)(=O)CC4)[C@@H](c3ccc(Cl)c(Cl)c3)C2)cc1 [Compound 8f, (R)-2-(5-(3,4-Dichlorophenyl)-3-(4-methoxyphenyl)-4,5-dihydro-1H-pyrazol-1-yl)-4-morpholino-7,8-dihydro-5H-thiopyrano[4,3-d]pyrimidine 6,6-dioxide] |  |  | 35.01 ± 0.18 |  | 38.65 ± 0.18
15 | Clc1ccc([C@H]2CC(c3ccc(Br)cc3)=NN2c2nc3c(c(N4CCOCC4)n2)CSCC3)cc1Cl [Compound 7c, (R)-4-(2-(3-(4-Bromophenyl)-5-(3,4-dichlorophenyl)-4,5-dihydro-1H-pyrazol-1-yl)-7,8-dihydro-5H-thiopyrano[4,3-d]pyrimidin-4-yl)morpholine] | 22.98 ± 0.19 | 185 to 186 | 15.36 ± 0.03 | 13 ± 0.42 | 12.9 ± 1.56
16 | Cc1ccc(C2=NN(c3nc4c(c(N5CCOCC5)n3)CS(=O)(=O)CC4)[C@@H](c3ccc(Br)cc3)C2)cc1 (racemic) [Compound 8i, (R)-2-(5-(4-Bromophenyl)-3-(p-tolyl)-4,5-dihydro-1H-pyrazol-1-yl)-4-morpholino-7,8-dihydro-5H-thiopyrano[4,3-d]pyrimidine 6,6-dioxide] |  |  | 24.7 ± 0.74 | 28.1 ± 0.89 | 31.89 ± 0.25
17 | Fc1ccc(C2=NN(c3nc4c(c(N5CCOCC5)n3)CSCC4)[C@@H](c3ccc(F)cc3)C2)cc1 [Compound 7g, (R)-4-(2-(3,5-Bis(4-fluorophenyl)-4,5-dihydro-1H-pyrazol-1-yl)-7,8-dihydro-5H-thiopyrano[4,3-d]pyrimidin-4-yl)morpholine] | 26.4 ± 0.37 | 144 to 146 | 20.3 ± 0.37 | 16.9 ± 0.66 | 15.2 ± 1.54
18 | COc1ccc(C2=NN(c3nc4c(c(N5CCOCC5)n3)CS(=O)(=O)CC4)[C@@H](c3ccc(F)cc3)C2)cc1 [Compound 8h, (R)-2-(5-(4-Fluorophenyl)-3-(4-methoxyphenyl)-4,5-dihydro-1H-pyrazol-1-yl)-4-morpholino-7,8-dihydro-5H-thiopyrano[4,3-d]pyrimidine 6,6-dioxide] | 33.9 ± 0.45 | 140 to 142 | 32.9 ± 2.82 | 35 ± 0.74 | 26.6 ± 0.33
19 | COc1ccc(C2=NN(c3nc4c(c(N5CCOCC5)n3)CSCC4)[C@@H](c3ccccc3)C2)cc1 [Compound 7l, (R)-4-(2-(3-(4-Methoxyphenyl)-5-phenyl-4,5-dihydro-1H-pyrazol-1-yl)-7,8-dihydro-5H-thiopyrano[4,3-d]pyrimidin-4-yl)morpholine] |  | > 300 |  | 36.4 ± 0.62 | 28.25 ± 0.14
20 | CS(=O)(=O)N1CCN(Cc2cc3nc(-c4cccc5[nH]ncc45)nc(N4CCOCC4)c3s2)CC1 [GDC-0941, Pictilisib dimethanesulfonate, reference compound] | 4.3 ± 0.84 |  | 0.07 ± 0.03 | 6.99 ± 0.21 | 0.2 ± 0.08
